Laboratory results taken from patent US20100173835A1, “Peptides for Treatment of Obesity” (Novo Nordisk A/S, priority 2008, published 2010).
Values after ≈ are worked out from the molar mass of the structure shown. Where two headings read alike, the source gives them in different places. Where a SMILES comes first, the peptide text is derived from it. Bridges are numbered along the chain shown (N, C = ends). [ ]: non-standard residue; d: D form. The star is where a group is joined. Palmitoyl(16-(5-tetrazolyl)) = O=C(CCCCCCCCCCCCCCCc1nnn[nH]1)*; Lys(CH2CO2H)2 = N[C@@H](CCCCN(CC(=O)O)CC(=O)O)C(=O)O; C16 diacid = O=C(O)CCCCCCCCCCCCCCC(=O)*; Hyp = O=C(O)[C@@H]1C[C@@H](O)CN1; NTA = O=C(O)CN(CC(=O)O)CC(=O)*; Nle = CCCC[C@H](N)C(=O)O; Dap = NC[C@H](N)C(=O)O; AEEA = NCCOCCOCC(=O)O

How the values were obtained:
[1] = Solubility data of compounds in water over the pH range; format: physicochemical
MC1 receptor = biological target: T1, MC1 receptor (Homo sapiens, UniProt Q01726); assay: Assay (IV) Melanocortin Receptor 1 (MC1) binding assay
T1 construct: expressed in transfected cells
Procedure: Assay (IV)—Melanocortin Receptor 1 (MC1) Binding Assay
The MC1 receptor binding assay is performed on BHK cell membranes stably expressing the MC1 receptor. The assay is performed in a total volume of 250 NI: 25 μl of ^125NDP-α-MSH (22 pM in final concentration), 25 μl of test compound/control and 200 μl of cell membrane (25 μg/ml). Test compounds are dissolved in DMSO. Radioactively labeled ligand, membranes and test compounds are diluted in buffer: 25 mM HEPES, pH 7.4, 0.1 mM CaCl2, 1 mM MgSO4, 1 mM EDTA, 0.1% HSA and 0.005% Tween™ 20. Alternatively, HSA may be substituted with ovalbumin. The samples are incubated at 30° C. for 90 min. in Costar round-bottom microtiter plates. Incubation is terminated by filtration on a Packard harvester filtermate. Rapid filtration through Packard Unifilter-96 GF/B filters pre-treated with polyethylenimine (PerkinElmer 6005277). The filters are washed with ice-cold 0.9% NaCl 8-10 times. The plates is air dried at app. 55° C. for 30 min, and 50 μl Microscint 0 (Packard, cat. No. 6013616) is added to each well. The plates are counted in a Topcounter (1 min/well).
(§1) The data are analysed by non-linear regression analysis of binding curves, using the Windows™ program GraphPad™ Prism (GraphPad Software, USA).

human MC4 receptor = biological target: T2, human MC4 receptor (Homo sapiens, UniProt P32245); assay: Assay (V) Melanocortin Receptor 4 (MC4) binding assay; conditions: 125NDP-α-MSH binding, BHK cell membranes
T2 construct: expressed in transfected cells
Procedure: Assay (V)—Melanocortin Receptor 4 (MC4) Binding Assay
In vitro ^125NDP-α-MSH binding to recombinant BHK cells expressing human MC4 receptor (filtration assay).
The assay is performed in 5 ml minisorb vials (Sarstedt No. 55.526) or in 96-well filterplates (Millipore MADVN 6550), and using BHK cells expressing the human MC4 receptor using BHK cells stably expressing the human MC4 receptor. The membranes were prepared from frozen or fresh cells that were homogenized in 20 mM HEPES pH 7.1, 5 mM MgCl2 and 1 mg/ml bacitracin and centrifuged at 15000 rpm at 4° C., 10 min in a Sorvall RC 5B plus, SS-34 rotor. The supernatant was discarded, and the pellets were re-suspended in buffer, homogenized and centrifuged two more times. The final pellets were resuspended in the buffer mentioned above, and the protein concentration was measured and adjusted with buffer to 14 to 17 mg/ml and the membrane preparation were kept at −80° C. until assay. The assay was run directly on a dilution of this cell membrane suspension, without any further preparation. The BHK cell membranes are kept at −80° C. until assay, and the assay is run directly on a dilution of this cell membrane suspension, without further preparation. The suspension is diluted to give maximally 10% specific binding, i.e. to approx. 50-100 fold dilution. The assay is performed in a total volume of 200 μl: 50 μl of cell suspension, 50 μl of ^125NDP-α-MSH (≈79 pM in final concentration), 50 μl of test compound and 50 μl binding buffer (pH 7) mixed and incubated for 2 h at 25° C. [binding buffer: 25 mM HEPES, pH 7.0, 1 mM CaCl2, 1 mM MgSO4, 1 mM EGTA, 0.02% Bacitracin, 0.005% Tween™ 20 and 0.1% HSA or, alternatively, 0.1% ovalbumin (Sigma; catalogue No. A-5503)]. Test compounds are dissolved in DMSO and diluted in binding buffer. Radiolabelled ligand and membranes are diluted in binding buffer. The incubation is stopped by dilution with 2×100 μl ice-cold 0.9% NaCl. The radioactivity retained on the filters is counted using a Cobra II auto gamma counter.
as §1

[2] = 125NDP-α-MSH binding, BHK cell membranes, read-out: Assay (IV) MC1 Ki

T2 sequence (P32245 whole entry): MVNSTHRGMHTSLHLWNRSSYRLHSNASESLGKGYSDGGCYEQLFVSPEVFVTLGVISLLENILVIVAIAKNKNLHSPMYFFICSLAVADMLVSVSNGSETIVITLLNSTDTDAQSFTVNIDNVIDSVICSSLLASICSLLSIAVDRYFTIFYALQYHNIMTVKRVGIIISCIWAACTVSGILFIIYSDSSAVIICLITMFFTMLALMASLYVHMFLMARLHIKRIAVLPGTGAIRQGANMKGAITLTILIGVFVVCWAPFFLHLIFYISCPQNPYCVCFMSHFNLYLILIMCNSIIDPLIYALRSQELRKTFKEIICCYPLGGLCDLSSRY
T1 sequence (Q01726 whole entry): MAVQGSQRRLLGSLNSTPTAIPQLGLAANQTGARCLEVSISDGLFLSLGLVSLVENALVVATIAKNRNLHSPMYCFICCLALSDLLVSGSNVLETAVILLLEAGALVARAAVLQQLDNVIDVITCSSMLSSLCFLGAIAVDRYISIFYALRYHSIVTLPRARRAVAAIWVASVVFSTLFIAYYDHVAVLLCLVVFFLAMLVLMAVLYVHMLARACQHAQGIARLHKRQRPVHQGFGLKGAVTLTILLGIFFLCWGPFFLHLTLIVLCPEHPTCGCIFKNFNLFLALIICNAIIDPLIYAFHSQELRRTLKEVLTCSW

CCCC[C@H](NC(=O)[C@H](CNC(=O)CN(CC(=O)O)CC(=O)O)NC(=O)[C@H](Cc1c[nH]cn1)NC(=O)[C@H](CCC(N)=O)NC(=O)[C@H](CO)NC(=O)CNC(=O)COCCOCCNC(=O)COCCOCCNC(=O)COCCOCCNC(=O)COCCOCCNC(=O)CCCCCCCCCCCCCCCc1nnn[nH]1)C(=O)N[C@H]1CCC(=O)NCCCC[C@@H](C(N)=O)NC(=O)[C@H](Cc2c[nH]c3ccccc23)NC(=O)[C@H](CCCNC(=N)N)NC(=O)[C@@H](Cc2ccccc2)NC(=O)[C@@H]2C[C@@H](O)CN2C1=O [Example 16, (2-{2-[2-(2-{2-[2-(2-{2-[2-(2-{2-[16-(Tetrazol-5-yl)hexadecanoylamino]ethoxy}ethoxy)acetylamino]ethoxy}ethoxy)acetylamino]ethoxy}ethoxy)acetylamino]ethoxy}ethoxy)acetyl-Gly-Ser-Gln-His-Dap(BCMA)-Nle-c[Glu-Hyp-D-Phe-Arg-Trp-Lys]-NH2] ({Palmitoyl(16-(5-tetrazolyl))-AEEA-AEEA-AEEA-AEEA}-GSQH[Dap](NTA)[Nle]E[Hyp][dF]RWK-NH2; lactam 7-12)
solubility at 3 days ([1]; pH 3.18): 531 µM (≈ 1340 µg/mL)
solubility at 3 days ([1]; pH 4.32): 515 µM (≈ 1300 µg/mL)
solubility at 3 days ([1]; pH 4.67): 492 µM (≈ 1240 µg/mL)
solubility at 3 days ([1]; pH 4.89): 450 µM (≈ 1140 µg/mL)
solubility at 3 days ([1]; pH 4.98): 347 µM (≈ 877 µg/mL)
solubility at 3 days ([1]; pH 5.75): 41 µM (≈ 104 µg/mL)
solubility at 3 days ([1]; pH 6.37): 51 µM (≈ 129 µg/mL)
solubility at 3 days ([1]; pH 6.66): 93 µM (≈ 235 µg/mL)
solubility at 3 days ([1]; pH 7.3): 454 µM (≈ 1150 µg/mL)
solubility at 3 days ([1]; pH 7.66): 596 µM (≈ 1510 µg/mL)
Ki (MC1 receptor; [2]): > 10000 nM
Ki (human MC4 receptor; read-out: Assay (V) MC4 [Ki]): 2.75 nM

CCCC[C@H](NC(=O)[C@H](CCCCNC(=O)CN(CC(=O)O)CC(=O)O)NC(=O)[C@H](CO)NC(=O)[C@H](CCC(N)=O)NC(=O)[C@H](CO)NC(=O)CNC(=O)COCCOCCNC(=O)CCCCCCCCCCCCCCC(=O)O)C(=O)N[C@H]1CCC(=O)NCCCC[C@@H](C(N)=O)NC(=O)[C@H](Cc2c[nH]c3ccccc23)NC(=O)[C@H](CCCNC(=N)N)NC(=O)[C@@H](Cc2ccccc2)NC(=O)[C@@H]2C[C@@H](O)CN2C1=O [Example 21, {2-[2-(15-Carboxypentadecanoylamino)ethoxy]ethoxy}acetyl-Gly-Ser-Gln-Ser-Lys(BCMA)-Nle-c[Glu-Hyp-D-Phe-Arg-Trp-Lys]-NH2] ({C16 diacid-AEEA}-GSQSK(NTA)[Nle]E[Hyp][dF]RWK-NH2; lactam 7-12)
solubility at 3 days ([1]; pH 4.04): 26 µM (≈ 53.2 µg/mL)
solubility at 3 days ([1]; pH 4.34): 32 µM (≈ 65.5 µg/mL)
solubility at 3 days ([1]; pH 4.74): 40 µM (≈ 81.9 µg/mL)
solubility at 3 days ([1]; pH 5.21): 58 µM (≈ 119 µg/mL)
solubility at 3 days ([1]; pH 5.67): 103 µM (≈ 211 µg/mL)
solubility at 3 days ([1]; pH 6.26): 108 µM (≈ 221 µg/mL)
solubility at 3 days ([1]; pH 6.29): 106 µM (≈ 217 µg/mL)
solubility at 3 days ([1]; pH 6.87): 117 µM (≈ 239 µg/mL)
solubility at 3 days ([1]; pH 7.6): 116 µM (≈ 237 µg/mL)
solubility at 3 days ([1]; pH 7.61): 107 µM (≈ 219 µg/mL)
Ki (MC1 receptor; [2]): > 10000 nM
Ki (human MC4 receptor; read-out: Assay (V) MC4 [Ki]): 14.7 nM

CCCC[C@H](NC(=O)[C@H](CCCCN(CC(=O)O)CC(=O)O)NC(=O)[C@H](Cc1c[nH]cn1)NC(=O)[C@H](CCC(N)=O)NC(=O)[C@H](CO)NC(=O)CNC(=O)COCCOCCNC(=O)CCCCCCCCCCCCCCCc1nnn[nH]1)C(=O)N[C@H]1CCC(=O)NCCCC[C@@H](C(N)=O)NC(=O)[C@H](Cc2c[nH]c3ccccc23)NC(=O)[C@H](CCCNC(=N)N)NC(=O)[C@@H](Cc2ccccc2)NC(=O)[C@@H]2C[C@@H](O)CN2C1=O [Example 7, (2-{2-[16-(Tetrazol-5-yl)hexadecanoylamino]ethoxy}ethoxy)acetyl-Gly-Ser-Gln-His-Lys(biscarboxymethyl)-Nle-c[Glu-Hyp-D-Phe-Arg-Trp-Lys]-NH2] ({Palmitoyl(16-(5-tetrazolyl))-AEEA}-GSQH[Lys(CH2CO2H)2][Nle]E[Hyp][dF]RWK-NH2; lactam 7-12)
solubility at 3 days ([1]; pH 2.94, pH 2.94, read-out: Conc (solubility in water)): 536 µM (≈ 1110 µg/mL)
solubility at 3 days ([1]; pH 3.28, pH 3.28, read-out: Conc (solubility in water)): 476 µM (≈ 989 µg/mL)
solubility at 3 days ([1]; pH 3.59, pH 3.59, read-out: Conc (solubility in water)): 398 µM (≈ 827 µg/mL)
solubility at 3 days ([1]; pH 3.95, pH 3.95, read-out: Conc (solubility in water)): 276 µM (≈ 573 µg/mL)
solubility at 3 days ([1]; pH 4.75, pH 4.75, read-out: Conc (solubility in water)): 42 µM (≈ 87.3 µg/mL)
solubility at 3 days ([1]; pH 5.64, pH 5.64, read-out: Conc (solubility in water)): 19 µM (≈ 39.5 µg/mL)
solubility at 3 days ([1]; pH 6.48, pH 6.48, read-out: Conc (solubility in water)): 18 µM (≈ 37.4 µg/mL)
solubility at 3 days ([1]; pH 6.98, pH 6.98, read-out: Conc (solubility in water)): 35 µM (≈ 72.7 µg/mL)
solubility at 3 days ([1]; pH 7.48, pH 7.48, read-out: Conc (solubility in water)): 262 µM (≈ 544 µg/mL)
solubility at 3 days ([1]; pH 7.78, pH 7.78, read-out: Conc (solubility in water)): 391 µM (≈ 812 µg/mL)
Ki (MC1 receptor): 8710 nM
Ki (human MC4 receptor; Assay (V) MC4 [Ki] (nM)): 1.6 nM

CCCC[C@H](NC(=O)[C@H](CNC(=O)CN(CC(=O)O)CC(=O)O)NC(=O)[C@H](CO)NC(=O)[C@H](CCC(N)=O)NC(=O)[C@H](CO)NC(=O)CNC(=O)COCCOCCNC(=O)CCCCCCCCCCCCCCCc1nnn[nH]1)C(=O)N[C@H]1CCC(=O)NCCCC[C@@H](C(N)=O)NC(=O)[C@H](Cc2c[nH]c3ccccc23)NC(=O)[C@H](CCCNC(=N)N)NC(=O)[C@@H](Cc2ccccc2)NC(=O)[C@@H]2C[C@@H](O)CN2C1=O [Example 4, (2-{2-[16-(Tetrazol-5-yl)hexadecanoylamino]ethoxy}ethoxy)acetyl-Gly-Ser-Gln-Ser-Dap(BCMA)-Nle-c[Glu-Hyp-D-Phe-Arg-Trp-Lys]-NH2] ({Palmitoyl(16-(5-tetrazolyl))-AEEA}-GSQS[Dap](NTA)[Nle]E[Hyp][dF]RWK-NH2; lactam 7-12)
Ki (MC1 receptor): 4800 nM
Ki (human MC4 receptor; Assay (V) MC4 [Ki] (nM)): 5.67 nM

CCCC[C@H](NC(=O)[C@H](CNC(=O)CN(CC(=O)O)CC(=O)O)NC(=O)[C@H](Cc1c[nH]cn1)NC(=O)[C@H](CCC(N)=O)NC(=O)[C@H](CO)NC(=O)CNC(=O)COCCOCCNC(=O)CCCCCCCCCCCCCCC(=O)O)C(=O)N[C@H]1CCC(=O)NCCCC[C@@H](C(N)=O)NC(=O)[C@H](Cc2c[nH]c3ccccc23)NC(=O)[C@H](CCCNC(=N)N)NC(=O)[C@@H](Cc2ccccc2)NC(=O)[C@@H]2C[C@@H](O)CN2C1=O [Example 13, {2-[2-(15-Carboxypentadecanoylamino)ethoxy]ethoxy}acetyl-Gly-Ser-Gln-His-Dap(BCMA)-Nle-c[Glu-Hyp-D-Phe-Arg-Trp-Lys]-NH2] ({C16 diacid-AEEA}-GSQH[Dap](NTA)[Nle]E[Hyp][dF]RWK-NH2; lactam 7-12)
Ki (MC1 receptor; [2]): > 10000 nM
Ki (human MC4 receptor; read-out: Assay (V) MC4 [Ki]): 3.6 nM

CCCC[C@H](NC(=O)[C@H](CNC(=O)CN(CC(=O)O)CC(=O)O)NC(=O)[C@H](Cc1ccc(O)cc1)NC(=O)[C@H](CCC(N)=O)NC(=O)[C@H](CO)NC(=O)CNC(=O)COCCOCCNC(=O)CCCCCCCCCCCCCCCc1nnn[nH]1)C(=O)N[C@H]1CCC(=O)NCCCC[C@@H](C(N)=O)NC(=O)[C@H](Cc2c[nH]c3ccccc23)NC(=O)[C@H](CCCNC(=N)N)NC(=O)[C@@H](Cc2ccccc2)NC(=O)[C@@H]2C[C@@H](O)CN2C1=O [Example 19, (2-{2-[16-(Tetrazol-5-yl)hexadecanoylamino]ethoxy}ethoxy)acetyl-Gly-Ser-Gln-Tyr-Dap(BCMA)-Nle-c[Glu-Hyp-D-Phe-Arg-Trp-Lys]-NH2] ({Palmitoyl(16-(5-tetrazolyl))-AEEA}-GSQY[Dap](NTA)[Nle]E[Hyp][dF]RWK-NH2; lactam 7-12)
Ki (MC1 receptor; [2]): > 10000 nM
Ki (human MC4 receptor; read-out: Assay (V) MC4 [Ki]): 3.9 nM
